Source: patent US20230158057A1, “COMPOSITIONS AND METHODS FOR THE TREATMENT OF PAIN” (Duke University, priority 2020, published 2023)

What was measured:
[1] = system: osteoclasts and osteoblasts in tumor-bearing distal femora; test: TRAP and ALP staining on mouse femurs; format: in vivo
Experimental: Bone histology, TRAP, and ALP staining on mouse femurs. Mice were deeply anesthetized and perfused intracardially with 4% paraformaldehyde (PFA) in 0.1M phosphate buffered saline. The femora were removed and then post-fixed for 48 h in the same fixative at 4° C. After demineralization in EDTA (10%) for 10 days, femur samples were dehydrated in an ascending gradient of ethanol (30-100%) followed by paraffin embedding. Serial sections for trabecular bone were obtained from the distal femur at a thickness of 5 μm followed by tartrate-resistant acid phosphatase (TRAP) staining or alkaline phosphatase (ALP) staining using TRAP kits (Fast Red TR/Naphthol AS-MX, Sigma, St. Louis, Mo.) and NBT/BCIP (Thermo Scientific), respectively. Bone static histomorphometric analyses for […] and osteoblast number (osteoblast number per trabecular bone surface, Ob.N/BS) were conducted using Image J (NIH) based on images taken by a Leica Q500MC microscope. Osteoclasts, osteoblasts and trabecular bone at the metaphysis of the femur (1500 μm proximal to the distal growth plate) were quantified, since bone destruction in this model mainly occurs in this area. Three sections per animal were randomly chosen and used for quantification.

[2] = system: LLC / LL/2-Luc2 / E0771 bone tumors; test: Local tumor burden (bioluminescence imaging, thigh circumference ratio); format: in vivo, mouse
Experimental: Culture of LLC cells and measurement of local tumor burden: Murine LLC cells were cultured in high glucose (4.5 g/L) Dulbecco's Modified Eagle Medium (DMEM; ThermoFisher) supplemented with 10% fetal bovine serum (Gibco, ThermoFisher) and 1% Antibiotic-Antimycotic solution containing penicillin, streptomycin, and Amphotericin B (ThermoFisher, 15240062). Cells were cultured in the presence of 5% CO2 at 37° C. Cells were passaged using a 0.05% trypsin digest once they achieved 70% confluency. Prior to in vivo injection, cells were harvested with 0.05% trypsin digestion followed by several washes in PBS. Cell counts were performed using a hemocytometer and diluted to achieve a suspension of 1×10^8 ml-1 cells in PBS. To determine whether i.t. STING agonists altered local tumor burden induced by femoral inoculation with LLC cells, mice were lightly anesthetized with isoflurane at the conclusion of the experiment, followed by measurement of the total circumference of the widest aspect of the thigh, which accurately reflects tumor burden. Ratios were computed between the ipsilateral (LLC-inoculated) and contralateral (tumor-free) legs.
In vivo bioluminescence imaging. RediJect D-Luciferin Ultra was purchased from PerkinElmer (770505). Prior to in vivo imaging, mice were shaved in the region of interest depicted in the figure. Bioluminescence images of LL/2-Luc2 bearing mice were captured with IVIS Lumina III system 15 min after intraperitoneal injection of D-Luciferin (30 mg/kg). The IVIS acquisition control panel was set to following conditions for imaging: Exposure time=auto, Binning=medium, F/Stop=1, Emission Filter=open. The bioluminescence images were analyzed using Living Image software from PerkinElmer.
STING agonists suppress local bone cancer tumor burden and further metastasis. Intratumoral injection of STING agonists has been reported to reduce tumor growth by promoting T cell-mediated antitumor immunity in several preclinical animal studies. It is unknown, however, whether systemic administration of STING agonists can attenuate tumor progression in the bone marrow, which is generally regarded as an overwhelmingly immunosuppressive tumor microenvironment. To answer this question, luciferase-labeled LLC cells (LL/2-LUC2 cell line) were used to establish the metastatic bone cancer model via intrafemoral inoculation, thereby enabling measurement of local tumor burden by in vivo bioluminescent imaging. Mice were treated with vehicle or DMXAA (20 mg/kg, i.p. at d3 and d7), followed by in vivo bioluminescence imaging at d8, d11, and d15. […] To quantify this, we measured the ratio of the maximum thigh circumference (ipsilateral/contralateral), which accurately reflects local tumor volume. […]

DRG nociceptors = test: Whole-mount DRG patch clamp from tumor-bearing mice ex vivo; format: cell-based, mouse; settings: 30 μM, 2 h, DRGs isolated d11
Description: Whole-cell patch clamp recordings in whole-mount DRGs ex vivo. Four-week-old male C57BL/6 mice were used to establish the bone cancer pain model by intrafemoral inoculation of LLC, leading to nociceptor hyperexcitability in the ipsilateral L3-L5 DRGs which extend afferent nerve fibers to the tumor-bearing femur. […] 11d after tumor implantation, mice were euthanized followed by careful isolation of L3-L5 DRGs, which were placed in oxygenated artificial cerebrospinal fluid. DRGs were lightly digested for 20 minutes using an enzymatic mixture consisting of 0.32 ml collagenase A (1 mg/mL) and Trypsin (0.25%). Intact DRGs were then incubated in ACSF oxygenated with 95% O2 and 5% CO2, supplemented with vehicle (PBS) or 30 μM DMXAA in PBS for 2 hours at 37° C. Following incubation, DRGs were transferred to a recording chamber, where neurons could be visualized using a 40× water-immersion objective on an Olympus BX51WI microscope. Patch pipettes were pulled from borosilicate capillaries (Chase Scientific Glass Inc.) and filled with a pipette solution containing (in mM): 126 potassium gluconate, 10 NaCl, 1 MgCl2, 10 EGTA, 2 Na-ATP, and 0.1 Mg-GTP, adjusted to pH 7.3 with KOH. The external solution was composed of (in mM): 140 NaCl, 5 KCl, 2 CaCl2, 1 MgCl2, 10 HEPES, 10 glucose, adjusted to pH 7.4 with NaOH. […] Data were recorded and analyzed using the pClamp10 (Axon Instruments) software.

## Cc1ccc2c(=O)c3cccc(CC(=O)O)c3oc2c1C [DMXAA, 2-(5,6-dimethyl-9-oxo-9H-xanthen-4-yl)acetic acid]
[1]; d11
  osteoblasts: no changes were observed in bone-forming osteoblasts
[1]; d11, 2×20 mg/kg i.p.
  osteoclast numbers: far significantly fewer osteoclasts
[2]; LL/2-Luc2, 20 mg/kg i.p. d3 and d7
  local tumor burden (total flux, bioluminescence): lower local tumor burden at d11 and d15
[2]; d17
  local tumor burden, Batf3^+/+ vs Batf3^−/−: only tumor-bearing Batf3^+/+ mice but not Batf3^−/− mice exhibited a decrease in local tumor burden
  ratio of maximum thigh circumference, WT vs Rag1^−/−: effectively reduced the ratio of maximum thigh circumference only in WT mice but not in Rag1^−/− mice
[2]; day 17, LLC and E0771 models
  ratio of maximum thigh circumference (ipsilateral/contralateral): could reduce the ratio of maximum thigh circumference
DRG nociceptors
  current-evoked action potential firing: sharply reduced the cancer-induced increase in current-evoked action potential firing
  rheobase of nociceptors: markedly increased the rheobase of nociceptors
